The target in this assay is T1, IRAK4 (Homo sapiens, UniProt Q9NWZ3).
T1 construct: His (N); TEV cleavage site (N)
T1 sequence (Q9NWZ3 1-460): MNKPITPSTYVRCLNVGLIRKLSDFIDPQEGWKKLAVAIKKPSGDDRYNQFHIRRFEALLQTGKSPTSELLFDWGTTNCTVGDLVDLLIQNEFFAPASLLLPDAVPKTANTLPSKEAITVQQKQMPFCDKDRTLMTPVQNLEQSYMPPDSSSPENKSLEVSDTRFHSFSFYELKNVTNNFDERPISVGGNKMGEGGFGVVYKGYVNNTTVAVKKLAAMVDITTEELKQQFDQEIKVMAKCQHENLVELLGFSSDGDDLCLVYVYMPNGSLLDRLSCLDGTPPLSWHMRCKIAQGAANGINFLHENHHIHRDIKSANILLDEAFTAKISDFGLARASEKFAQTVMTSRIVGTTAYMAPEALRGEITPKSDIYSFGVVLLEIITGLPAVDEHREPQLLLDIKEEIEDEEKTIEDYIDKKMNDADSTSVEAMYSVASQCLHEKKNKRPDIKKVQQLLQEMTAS
Nature of the assay: IRAK4 Enzymatic Assay. The settings on record: His-TEV-IRAK4 20 ng/well, ATP 2 μM, STK1-biotin peptide 300 nM, 3 hours at 30° C., FlashPlate radioactivity. The class given is biochemical. In outline:
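Recombinant His-TEV-tagged IRAK4 (20 ng/well) phosphorylates biotinylated STK1 peptide (300 nM) with 2 μM ATP plus [^33P]ATP, 3 h at 30 °C in pH 7.0 HEPES buffer with MgCl2 and MnCl2; compounds tested 20 μM to 1 nM. Reaction stopped with EDTA; incorporated radioactivity counted on streptavidin FlashPlates.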
One may read the IC50 as the point on the concentration scale where inhibition reaches its midpoint. On to `C[C@H](CO)NC(=O)[C@H]1CC[C@H](n2cc(-c3cnc(-c4cccc(-c5cnn(C)c5)c4)nc3)cn2)CC1` [Example 199, Trans-4-(4-{2-[3-(1-Methyl-1H-pyrazol-4-yl)-phenyl]-pyrimidin-5-yl}-pyrazol-1-yl)-cyclohexanecarboxylic acid ((R)-2-hydroxy-1-methyl-ethyl)-amide], for which the IC50 is under 100 nM. For `CC(C)N(C)C(=O)[C@H]1CC[C@H](n2cc(-c3cnc(-c4cccc(-c5cnn(C)c5)c4)nc3)cn2)CC1` [Example 200, Trans-4-(4-{2-[3-(1-Methyl-1H-pyrazol-4-yl)-phenyl]-pyrimidin-5-yl}-pyrazol-1-yl)-cyclohexanecarboxylic acid isopropyl-methyl-amide], the IC50 was under 100 nM. `CCC(O)CNC(=O)[C@H]1CC[C@H](n2cc(-c3cnc(-c4cccc(-c5cnn(C)c5)c4)nc3)cn2)CC1` (stereo partly drawn) [Example 203, trans-4-(4-{2-[3-(1-Methyl-1H-pyrazol-4-yl)-phenyl]-pyrimidin-5-yl}-pyrazol-1-yl)-cyclohexanecarboxylic acid (2-hydroxy-butyl)-amide]: the IC50 is under 100 nM. With `CCN(C)C(=O)[C@H]1CC[C@H](n2cc(-c3cnc(-c4cccc(-c5cnn(C)c5)c4)nc3)cn2)CC1` [Example 204, 4-(4-{2-[3-(1-Methyl-1H-pyrazol-4-yl)-phenyl]-pyrimidin-5-yl}-pyrazol-1-yl)-cyclohexanecarboxylic acid ethyl-methyl-amide] the figure was under 100 nM; with `Cn1cc(-c2cccc(-c3ncc(-c4cnn([C@H]5CC[C@H](C(=O)N6CC[C@H](O)C6)CC5)c4)cn3)c2)cn1` [Example 205, trans-((S)-3-Hydroxy-pyrrolidin-1-yl)-[4-(4-{2-[3-(1-methyl-1H-pyrazol-4-yl)-phenyl]-pyrimidin-5-yl}-pyrazol-1-yl)-cyclohexyl]-methanone], under 100 nM; with `Cn1cc(-c2cccc(-c3ncc(-c4cnn([C@H]5CC[C@H](C(N)=O)CC5)c4)cn3)c2)cn1` [Example 206, Trans-4-(4-{2-[3-(1-Methyl-1H-pyrazol-4-yl)-phenyl]-pyrimidin-5-yl}-pyrazol-1-yl)-cyclohexanecarboxylic acid amide], under 100 nM. On to `Cn1cc(-c2cccc(-c3ncc(-c4cnn([C@H]5CC[C@H](N6CCOCC6)CC5)c4)cn3)c2)cn1` [Example 208, Trans-4-[4-(4-{2-[3-(1-Methyl-1H-pyrazol-4-yl)-phenyl]-pyrimidin-5-yl}-pyrazol-1-yl)-cyclohexyl]-morpholine], for which the IC50 was under 100 nM. With `Cn1cc(-c2cccc(-c3ncc(-c4cnn([C@H]5CC[C@@H](N6CCOCC6)CC5)c4)cn3)c2)cn1` [Example 209, cis-4-[4-(4-{2-[3-(1-Methyl-1H-pyrazol-4-yl)-phenyl]-pyrimidin-5-yl}-pyrazol-1-yl)-cyclohexyl]-morpholine] the figure was 1000 to 5000 nM. With `Cn1cc(-c2cccc(-c3ncc(-c4cnn(CCNS(C)(=O)=O)c4)cn3)c2)cn1` [Example 210, N-[2-(4-{2-[3-(1-Methyl-1H-pyrazol-4-yl)-phenyl]-pyrimidin-5-yl}-pyrazol-1-yl)-ethyl]-methanesulfonamide] the figure was 1000 to 5000 nM; with `Cn1cc(-c2cccc(-c3ncc(-c4cnn(C5CCCC5O)c4)cn3)c2)cn1` (stereo not shown) [Example 211, 2-(4-{2-[3-(1-Methyl-1H-pyrazol-4-yl)-phenyl]-pyrimidin-5-yl}-pyrazol-1-yl)-cyclopentanol], 100 to 1000 nM; with `Cn1cc(-c2cccc(-c3ncc(-c4cnn(CC(O)CO)c4)cn3)c2)cn1` (stereo not shown) [Example 212, 3-(4-{2-[3-(1-Methyl-1H-pyrazol-4-yl)-phenyl]-pyrimidin-5-yl}-pyrazol-1-yl)-propane-1,2-diol], 100 to 1000 nM. With `Cn1cc(-c2cccc(-c3ncc(-c4cnn([C@H]5CC[C@H](C(=O)NC(C)(C)CO)CC5)c4)cn3)c2)cn1` [Example 213, trans-4-(4-{2-[3-(1-Methyl-1H-pyrazol-4-yl)-phenyl]-pyrimidin-5-yl}-pyrazol-1-yl)-cyclohexanecarboxylic acid (2-hydroxy-1,1-dimethyl-ethyl)-amide] the figure was under 100 nM; with `CC(C)OCC(CO)n1cc(-c2cnc(-c3cccc(-c4cnn(C)c4)c3)nc2)cn1` (stereo not shown) [Example 214, 3-Isopropoxy-2-(4-{2-[3-(1-methyl-1H-pyrazol-4-yl)-phenyl]-pyrimidin-5-yl}-pyrazol-1-yl)-propan-1-ol], 1000 to 5000 nM; with `Cn1cc(-c2cccc(-c3ncc(-c4cnn(CC(O)c5ccccn5)c4)cn3)c2)cn1` (stereo not shown) [Example 215, 2-(4-{2-[3-(1-Methyl-1H-pyrazol-4-yl)-phenyl]-pyrimidin-5-yl}-pyrazol-1-yl)-1-pyridin-2-yl-ethanol], 100 to 1000 nM. For `Cn1cc(-c2cccc(-c3ncc(-c4cnn(C5CCSC5)c4)cn3)c2)cn1` (stereo not shown) [Example 216, 2-[3-(1-Methyl-1H-pyrazol-4-yl)-phenyl]-5-[1-(tetrahydro-thiophen-3-yl)-1H-pyrazol-4-yl]-pyrimidine], the IC50 was 100 to 1000 nM. In the case of `COCCO[C@H]1CC[C@H](n2cc(-c3cnc(-c4cccc(-c5cnn(C)c5)c4)nc3)cn2)CC1` [Example 217, trans-5-{1-[4-(2-Methoxy-ethoxy)-cyclohexyl]-1H-pyrazol-4-yl}-2-[3-(1-methyl-1H-pyrazol-4-yl)-phenyl]-pyrimidine], the IC50 is under 100 nM.

Consider `COCCO[C@H]1CC[C@@H](n2cc(-c3cnc(-c4cccc(-c5cnn(C)c5)c4)nc3)cn2)CC1` [Example 218, cis-5-{1-[4-(2-Methoxy-ethoxy)-cyclohexyl]-1H-pyrazol-4-yl}-2-[3-(1-methyl-1H-pyrazol-4-yl)-phenyl]-pyrimidine], for which the 50% inhibitory concentration (IC50) lay in the range of 100 to 1000 nM. On to `Cn1cc(-c2cccc(-c3ncc(-c4cnn([C@H]5CC[C@H](OCC6CC6)CC5)c4)cn3)c2)cn1` [Example 220, trans-5-[1-(4-Cyclopropylmethoxy-cyclohexyl)-1H-pyrazol-4-yl]-2-[3-(1-methyl-1H-pyrazol-4-yl)-phenyl]-pyrimidine], for which the IC50 was under 100 nM.

In the case of `Cn1cc(-c2cccc(-c3ncc(-c4cnn(C5CCCOC5)c4)cn3)c2)cn1` (stereo not shown) [Example 221, 2-[3-(1-Methyl-1H-pyrazol-4-yl)-phenyl]-5-[1-(tetrahydro-pyran-3-yl)-1H-pyrazol-4-yl]-pyrimidine], the IC50 was in the range of 100 to 1000 nM. On to `CN(C)C(=O)C1CC2(C1)CC(n1cc(-c3cnc(-c4cccc(-c5cnn(C)c5)c4)nc3)cn1)C2` (stereo not shown) [Example 222, 6-(4-{2-[3-(1-Methyl-1H-pyrazol-4-yl)-phenyl]-pyrimidin-5-yl}-pyrazol-1-yl)-spiro[3.3]heptane-2-carboxylic acid dimethylamide], for which the IC50 is 100 to 1000 nM. With `CC(=O)N1CCCC(n2cc(-c3cnc(-c4cccc(-c5cnn(C)c5)c4)nc3)cn2)CC1` (stereo not shown) [Example 223, 1-[4-(4-{2-[3-(1-Methyl-1H-pyrazol-4-yl)-phenyl]-pyrimidin-5-yl}-pyrazol-1-yl)-azepan-1-yl]-ethanone] the figure was 100 to 1000 nM; with `Cn1cc(-c2cccc(-c3ncc(-c4cnn([C@H]5CC[C@H](OCC(C)(C)O)CC5)c4)cn3)c2)cn1` [Example 224, trans-2-Methyl-1-[4-(4-{2-[3-(1-methyl-1H-pyrazol-4-yl)-phenyl]-pyrimidin-5-yl}-pyrazol-1-yl)-cyclohexyloxy]-propan-2-ol], under 100 nM.

The record behind these values is patent publication US9216991B2 (Ares Trading S.A., priority 2012, dated 2015).
